Measurements taken from patent publication US20150104426A1, “SKIN-CARE AGENT CONTAINING PLEUROTUS FERULAE FRUIT BODY EXTRACT OR PLEUROTUS FERULAE MYCELIUM EXTRACT” (AMI Cosmetic Co., Ltd., priority 2013, published 2015).

Key:
[1] = system: matrix metalloproteinase (MMP-1); experiment: Repression of MMP-1 after ultraviolet irradiation (ELISA); assay type: cell-based; settings: 0.02 wt %; human dermal fibroblasts, UVA 6.3 J/cm^2, 24 hours
Experimental: After UV irradiation and addition of samples (Pleurotus ferulae fruiting body extract, Pleurotus ferulae mycelium extract or Pleurotus ferulae mycelium culture, retinol), enzyme-linked immunosorbent assay (ELISA) was carried out to measure concentration of matrix metalloproteinase (MMP-1). Human dermal fibroblasts were irradiated with UVA at an energy of 6.3 J/cm^2 in a UV chamber, and conditions of the dose of ultraviolet radiation and culture time which maximize expression of matrix metalloproteinase (MMP-1) in fibroblasts were established through preliminary testing. A negative control group was wrapped with a foil and exposed to UVA environment for the same time. Here, UVA dose was measured using a UV radiometer. The cells during irradiation of UVA were cultured in the medium previously used. After UVA irradiation, the cells were cultured in a fresh medium containing samples for 24 hours and the medium were coated on 96-well plates. […] The cells were reacted with anti-mouse IgG (whole mouse, alkaline phosphatase conjugated) as a secondary antibody for about 60 minutes, and an alkaline phosphatase substrate solution (1 mg/mL ρ-nitrophenyl phosphate in diethanolamine buffer solution) at room temperature for 30 minutes, and absorbance at 405 nm was measured using a microplate reader. […]

[2] = Antioxidative effect, NBT method (xanthine/xanthine oxidase); assay type: biochemical; settings: sample 0.1 wt %
Experimental: In accordance with the NBT method, active oxygen is produced by xanthine and xanthine oxidase, and absorbance at a wavelength of 560 nm of a blue substance produced upon reaction between the active oxygen and nitro blue tetrazolium (NBT) is measured. In the present test example, an active oxygen scavenge rate was measured in accordance with the following method. In addition, BHT, a well-known antioxidant, was used as a positive control group.
2.4 mL of 0.05M sodium carbonate (Na2CO3), 0.1 mL of a 3 mM xanthine solution, 0.1 mL of a 3 mM EDTA solution, 0.1 mL of a BSA solution and 0.1 mL of a 0.72 mM NBT solution were added to vials, 0.025, 0.05, 0.1 and 0.25% by weight of sample solutions were added respectively thereto, followed by allowing to stand at 25° C. for 10 minutes. After standing, 0.1 mL of a xanthine oxidase solution was added to the each solution which was then rapidly stirred and cultured at 25° C. for 20 minutes. 0.1 mL of a 6 mM copper chloride (CuCl2) solution was added to the culture solution to stop the reaction. Absorbance (St) at 560 nm was measured. […] Absorbance (Bt) was measured in the same manner as above. Absorbance (Bo) of the blank of the sample solution was measured in the same manner as above using distilled water instead of the xanthine oxidase solution. In addition, active oxygen scavenge rate (%) was calculated by the following Equation 1. […]

[3] = Antioxidative effect, DPPH method; assay type: biochemical; settings: sample 0.1 wt %
Experimental: The DPPH method measures free radical scavenge activity based on reduction power using a free radical, called “DPPH (2,2-di(4-tert-octylphenyl)-1-picrylhydrazyl)”. In the present test example, decrease in absorbance caused by reduction of DPPH by a test substance was compared with an absorbance of a blank test solution, and free radical scavenge rate at a wavelength of 560 nm was measured. Measurement was performed as follows. In addition, BHT, a well-known antioxidant, was used as a positive control group.
0.025, 0.05, 0.1 and 0.25% by weight of different concentrations of the Pleurotus ferulae fruiting body extracts, the Pleurotus ferulae mycelium extracts and the Pleurotus ferulae mycelium cultures were prepared and pipetted into on 96-well plates, and DPPH prepared from a 100 μM methanol solution was added thereto such that the total volume of the solution reached 200 μl. The solution was allowed to stand at 37° C. for 30 minutes, absorbance (St) at 560 nm of the solution was measured and free radical scavenge activity (%) was calculated using the following Equation 2.
Free radical scavenge activity (%)=[…]×100 Equation 2 […]

[4] = system: Human keratinocytes HaCaT cell line; experiment: Scavenging of active oxygen in cells after UVB (DCFH-DA); assay type: cell-based; settings: 0.01 wt %, UVB 20 mJ/cm^2
Experimental: A cell line used for the present test example was a Human keratinocytes HaCaT cell line obtained from Dr. Fusenig in the German Cancer Research Center. The cell line was seeded at a density of 2.0×10^4 cells per well into 96-well black plates for fluorescent measurement and cultured in DMEM (Dulbecco's Modified Eagle's Medium, FBS 10%, Gibco, USA) media containing penicillin and streptomycin at 37° C. in an atmosphere containing 5% CO2 for one day. […] Then, after 100 μl of different concentrates of HCSS was added to the test samples, fluorescence of DCF (dichlorofluorescein) initially oxidized with active oxygen was measured using a fluorescence plate reader (Ex: 485 nm, Em: 530 nm). Then, the samples were irradiated with UVB (20 mJ/cm^2), treated with 0.005, 0.01 and 0.02% by weight of the Pleurotus ferulae fruiting body extract, the Pleurotus ferulae mycelium extract and the Pleurotus ferulae mycelium culture and then measured for fluorescence using the fluorescence plate reader (Ex: 485 nm, Em: 530 nm). At this time, epigallocatechin gallate (EGCG) known to have potent antioxidative effects was used as a positive control group.

[5] = system: tyrosinase; experiment: Inhibition of tyrosinase activity; assay type: biochemical, mushrooms; settings: 0.2 wt %; L-tyrosine substrate
Experimental: Tyrosinase is an enzyme which facilitates oxidation of a substance called “tyrosine” in vivo and aids in production of melanin. Tyrosinase was isolated from mushrooms and purified, and was obtained from Sigma Aldrich Corp. A 0.1 mg/mL solution of L-tyrosine as a substrate in a 0.05 M sodium phosphate buffer solution (pH 6.8) was prepared. […] The test tube containing the reaction solution was quenched in ice to stop the reaction and transmissivity at a wavelength of 475 nm was measured using a spectrophotometer. A group treated with 0.5 mL of a buffer solution, instead of the Pleurotus ferulae fruiting body extract, the Pleurotus ferulae mycelium extract or the Pleurotus ferulae mycelium culture was used as a control group, and arbutin, a well-known whitening agent, was used as a positive control group. In addition, inhibition of tyrosinase activity by the respective samples were calculated in accordance with the following Equation 3. Inhibition of tyrosinase activity (%)=100−[(absorbance of reference group/absorbance of control group)]×100 Equation 3

[6] = system: B16F1 melanin cells; experiment: Inhibition of melanin synthesis in B16F1 melanin cells; assay type: cell-based, mice; settings: 0.2 wt %; B16F1, 72 hours
Experimental: B16F1 melanocytes used for the present test example were cell lines derived from mice, which secrete a black pigment called “melanin”. The effect on inhibition of melanin synthesis of B16F1 melanin cells was measured as follows. […] After culturing for 72 hours, the cells were removed from trypsin-EDTA, counted and collected by centrifugation. Melanin in cells was assayed using a slightly modified version of Lotan's method (R Lotan and D Lotan, Cancer Res, 40: 3345-3350, 1980). Cell pellets were washed with PBS once and homogenized, 1 mL of a buffer solution (50 mM sodium phosphate, pH 6.8, 1% Triton X-100, 2 mM PMSF) was added to the cells, and the cells were crushed by vortex for 5 minutes. Melanin extracted by addition of 1N NaOH (10% DMSO) to a cell residue obtained by centrifugation (3,000 rpm, 10 minutes) was dissolved, absorbance of melanin at 405 nm was measured using a microplate reader, melanin was assayed, and inhibition of melanin production (%) of the sample was measured. In addition, a group not treated with the Pleurotus ferulae fruiting body extract, the Pleurotus ferulae mycelium extract or the Pleurotus ferulae mycelium culture was used as a control group, arbutin well-known as a whitening agent was used as a positive control group, and inhibition of melanin synthesis (%) by B16F1 melanin cells was calculated in accordance with Equation 4. […]

[7] = system: type 1 procollagen; experiment: Promotion of type 1 procollagen biosynthesis in fibroblasts; assay type: cell-based; settings: 0.001 wt %; human dermal fibroblasts, 24 hours
Experimental: Human dermal fibroblasts isolated from infant epidermal tissues were obtained from Modern Tissue Technology (MTT, Korea) and cultured at 1×10^4 cell/cm2 in a DMEM/F-12 (3:1) medium containing 10% fetal bovine serum (FBS). The human dermal fibroblasts grown to about a confluence of 80% were sub-cultured at a split ratio of 1:3 four times and were then used for the testing.
For the test to measure the amount of procollagen, fibroblasts were cultured to a confluence of 90% or more on a 48-well plate, the Pleurotus ferulae fruiting body extract, the Pleurotus ferulae mycelium […], and after 24 hours, the amount of procollagen released in the medium was measured using a procollagen type-1C-peptide EIA kit (MK101, Takara, Japan). In addition, TGF-β was used as a positive control group.

CC1=C(/C=C/C(C)=C/C=C/C(C)=C/CO)C(C)(C)CCC1 [Retinol, retinol]
Repression of MMP-1 (%) [1]: 36%

Cc1cc(C(C)(C)C)c(O)c(C(C)(C)C)c1 [BHT]
Active oxygen scavenge rate (antioxidative effect, %) [2]: 89% | Free radical scavenge rate (antioxidative effect, %) [3]: 85%

O=C(O[C@@H]1Cc2c(O)cc(O)cc2O[C@@H]1c1cc(O)c(O)c(O)c1)c1cc(O)c(O)c(O)c1 [EGCG, epigallocatechin gallate]
Effect of scavenging active oxygen (%) [4]: 45%

OC[C@H]1O[C@@H](Oc2ccc(O)cc2)[C@H](O)[C@@H](O)[C@@H]1O [Arbutin, arbutin]
Inhibition of tyrosinase activity (%) [5]: 54% | Inhibition of melanin synthesis (%) [6]: 55%

TGF-β
Promotion of procollagen biosynthesis (%) [7]: 125%
